Source: ChEMBL document CHEMBL1201862, “PubChem BioAssay data set” (2004)
The source made the active and inactive calls.

Columns and labels:
[1] = THP-1 cell cytotoxicity, dose response, cytotoxicity control for Vif-APOBEC3G degradation inhibitor project, THP-1 cells (AID 1117359); format: functional; details: Human immunodeficiency virus 1, THP-1
[2] = molecular target: Likely tRNA 2'-phosphotransferase (Candida albicans (strain SC5314 / ATCC MYA-2876) (Yeast), UniProt Q5A7N4); experiment: TPT1 tRNA phosphotransferase inhibitors, dose response, biochemical, fluorescence polarization (AID 2160)
[3] = molecular target: Guanyl-specific ribonuclease T1 (Aspergillus oryzae (strain ATCC 42149 / RIB 40), UniProt P00651); experiment: RNase T1 inhibitors, dose response, counter-screen for TPT1 inhibitor project, biochemical, fluorescence polarization, 1536-well (AID 2167)
[4] = molecular target: Glutathione-S-transferase (Schistosoma japonicum, UniProt Q26513); experiment: biotin-GST/anti-GST TR-FRET signal inhibitors, dose response, artefact control for Vif-APOBEC3G degradation inhibitor project, biochemical (AID 1117362); format: functional
[5] = tested on: Streptococcus sp. 'group A'; experiment: growth inhibition of control SK(-) GAS strain, dose response, counter-screen for streptokinase expression inhibitor project, luminescence, kanamycin, BacTiterGlo, confirmation (AID 1900); format: functional, organism-based
[6] = polyadenylation inhibitors in yeast reporter, dose response, luminescence, S. cerevisiae SKY197-pL101 (AID 2525); format: functional, cell-based
[7] = Luminescence Cell-Based Dose Confirmation HTS to Identify Inhibitors of Polyadenylation.; format: functional
Streptokinase A = molecular target: T1, Streptokinase A (Streptococcus pyogenes serotype M1, UniProt P10520); experiment: S. pyogenes streptokinase expression inhibitors, potency, dose response, plasminogen activation absorbance, OD405 (AID 1914); format: functional, Streptococcus pyogenes M1 GAS;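 note: secreted streptokinase activity via plasminogen activation per viability signal from cell pellet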
T1 sequence (P10520 whole entry): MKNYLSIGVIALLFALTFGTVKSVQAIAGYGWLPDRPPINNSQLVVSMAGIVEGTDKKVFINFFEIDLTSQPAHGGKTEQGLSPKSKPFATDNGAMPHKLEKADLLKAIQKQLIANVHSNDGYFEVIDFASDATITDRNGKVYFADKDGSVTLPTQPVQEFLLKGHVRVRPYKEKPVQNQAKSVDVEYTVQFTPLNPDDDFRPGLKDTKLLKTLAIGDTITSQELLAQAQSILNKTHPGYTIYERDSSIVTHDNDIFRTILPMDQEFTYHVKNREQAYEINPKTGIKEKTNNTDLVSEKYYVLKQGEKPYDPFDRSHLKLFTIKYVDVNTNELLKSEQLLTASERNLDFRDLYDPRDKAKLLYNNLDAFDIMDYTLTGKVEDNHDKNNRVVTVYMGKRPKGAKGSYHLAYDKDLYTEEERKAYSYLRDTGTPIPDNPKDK

Streptococcus = experiment: Group A Streptococcus viability loss, dose response, counter-screen for streptokinase expression inhibitor project, luminescence, BacTiterGlo (AID 1915); format: functional, organism-based;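 note: potency for reduction of bacterial viability or growth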
[8] = molecular target: Multidrug resistance protein CDR1 (Candida albicans, UniProt P43071); experiment: CaCDR1 efflux pump inhibitors in yeast, dose response, S. cerevisiae AD1-8u, singleplex, Cherry Pick1 hits (AID 588606); format: functional
[9] = molecular target: Transitional endoplasmic reticulum ATPase (Homo sapiens, UniProt P55072, C522A); experiment: C522A mutant p97 ATPase inhibitors, dose response, counter-screen for p97 inhibitor project, biochemical, luminescence (AID 1544)
[10] = NIH-3T3 fibroblast cytotoxicity, dose response, cytotoxicity control, cell-based, fluorescence, Alamar Blue, secondary assay (AID 2327); format: functional;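 note: NIH-3T3 mouse fibroblasts cultured with fluconazole at 8 µg/mL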
[11] = molecular target: T2, Ubiquitin-conjugating enzyme E2 N (Homo sapiens, UniProt P61088); format: functional
T2 sequence (P61088 whole entry): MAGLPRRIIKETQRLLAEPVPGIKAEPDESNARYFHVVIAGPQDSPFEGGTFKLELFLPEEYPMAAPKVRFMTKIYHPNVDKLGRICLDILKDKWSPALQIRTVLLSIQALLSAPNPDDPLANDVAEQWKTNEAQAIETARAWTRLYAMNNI

[12] = inhibitors of firefly luciferase expression or activity, dose response, H4 neuroglioma cells, luminescence (AID 1990); format: functional, cell-based
[13] = molecular target: T3, Calpain-2 catalytic subunit (Sus scrofa, UniProt P43367); experiment: pig calpain II inhibitor potency, dose response, biochemical, fluorogenic peptide substrate (AID 1420); format: functional
T3 sequence (P43367 whole entry): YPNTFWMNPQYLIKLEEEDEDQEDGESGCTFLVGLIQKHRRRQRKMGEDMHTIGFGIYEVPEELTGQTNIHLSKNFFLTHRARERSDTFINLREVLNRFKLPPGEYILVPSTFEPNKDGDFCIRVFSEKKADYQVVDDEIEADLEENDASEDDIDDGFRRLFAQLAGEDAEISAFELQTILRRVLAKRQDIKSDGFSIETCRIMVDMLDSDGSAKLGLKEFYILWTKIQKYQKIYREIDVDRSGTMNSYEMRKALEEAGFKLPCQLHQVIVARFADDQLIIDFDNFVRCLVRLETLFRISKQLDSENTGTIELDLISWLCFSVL

[14] = inhibitors of SNCA 5'UTR-driven reporter translation, confirmation, H4 neuroglioma cells, luminescence (AID 1988); format: functional, cell-based
[15] = molecular target: Transitional endoplasmic reticulum ATPase (Homo sapiens, UniProt P55072); experiment: p97 ATPase inhibitors, dose response, biochemical (AID 1534)
[16] = molecular target: T2, Ubiquitin-conjugating enzyme E2 N; format: functional; remark: listed apart in the source
[17] = growth suppression of PTEN-null colon cells, dose response, cell-based, HCT116 PTEN knockout (AID 1047); format: functional;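 note: HCT116 colon tumor cells with PTEN knocked out; cells exposed to compound for 60 hours before readout; potency for loss of cell viability measured by luminescence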
Bcl-2-related protein A1 = molecular target: T4, Bcl-2-related protein A1 (Mus musculus, UniProt Q07440); format: functional;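 note: confirmatory dose–response counterscreen on Bfl-1, used to check hits from a UBC13 polyubiquitin inhibitor campaign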
T4 sequence (Q07440 whole entry): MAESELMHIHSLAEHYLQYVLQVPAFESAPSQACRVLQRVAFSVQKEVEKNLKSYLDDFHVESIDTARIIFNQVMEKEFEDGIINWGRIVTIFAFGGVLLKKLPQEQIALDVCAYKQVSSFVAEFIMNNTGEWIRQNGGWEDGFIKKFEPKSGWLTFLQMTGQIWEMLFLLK

[18] = Luminescence Cell-Based Dose Response HTS to Identify Inhibitors of 5'UTR Stem-Loop Driven Prion Protein mRNA Translation in H4 Neuroglioblastoma Cells. [Related pubchem assays: 1827 (Project Summary), 1813 (Primary HTS)]; format: functional
[19] = growth suppression of beta-catenin-knockout colon cells, dose response, cell-based, HCT116, human colon tumor (AID 1045); format: functional;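 note: HCT116 colon tumor cells with beta catenin knocked out; cells exposed to compound for 60 hours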
[20] = molecular target: Lysosomal acid glucosylceramidase (Homo sapiens, UniProt P04062); experiment: Dose response cell-based high throughput screening assay to identify enhancers of beta-glucosidase activity. [Related pubchem assays: 784 ]; format: functional
[21] = molecular target: T5, Eukaryotic translation initiation factor 2-alpha kinase 3 (Homo sapiens, UniProt Q9NZJ5); experiment: Counterscreen assay for PERK inhibitors: Dose response cell-based high throughput screening assay to measure inhibition of PERK at 6 hours. [Related pubchem assays: 1522, 1416 ]; format: functional
Caspase-6 = molecular target: T6, Caspase-6 (Homo sapiens, UniProt P55212); experiment: human caspase-6 inhibitors, dose response, biochemical, VEID-R110 fluorescence, cherry-pick (AID 720632)
T6 sequence (P55212 whole entry): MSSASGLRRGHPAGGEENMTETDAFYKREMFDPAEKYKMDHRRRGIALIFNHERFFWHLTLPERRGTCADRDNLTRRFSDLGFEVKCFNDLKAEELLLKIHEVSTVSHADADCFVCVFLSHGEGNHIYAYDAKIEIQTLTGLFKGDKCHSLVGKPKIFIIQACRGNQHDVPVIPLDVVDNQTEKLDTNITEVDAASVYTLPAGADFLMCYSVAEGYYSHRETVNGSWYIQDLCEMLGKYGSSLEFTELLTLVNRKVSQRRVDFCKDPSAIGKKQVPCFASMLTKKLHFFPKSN

[22] = molecular target: T5, Eukaryotic translation initiation factor 2-alpha kinase 3; experiment: Dose response cell-based high-throughput screening assay to measure PERK inhibition. [Related pubchem assays: 1416 ]; format: functional
[23] = molecular target: T7, Polyadenylate-binding protein 1 (Homo sapiens, UniProt P11940); experiment: PABP poly(A) RNA binding inhibitors, primary screen, biochemical, fluorescence polarization, uHTS (AID 2014)
[24] = molecular target: Eukaryotic translation initiation factor 4H (Homo sapiens, UniProt Q15056); experiment: human eIF4H binding inhibitors, primary screen, translation initiation inhibitor project, biochemical, uHTS, fluorescence polarization (AID 2012)
[25] = molecular target: T8, RNA-binding protein pos-1 (Caenorhabditis elegans, UniProt G5EF15); experiment: inhibitors of POS-1/mex-3 RNA binding, dose response, biochemical, fluorescence polarization (AID 1964);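 note: purified POS-1 fused to maltose binding protein made in E. coli; potency of compounds blocking POS-1 binding to fluorescent RNA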
T8 sequence (G5EF15 whole entry): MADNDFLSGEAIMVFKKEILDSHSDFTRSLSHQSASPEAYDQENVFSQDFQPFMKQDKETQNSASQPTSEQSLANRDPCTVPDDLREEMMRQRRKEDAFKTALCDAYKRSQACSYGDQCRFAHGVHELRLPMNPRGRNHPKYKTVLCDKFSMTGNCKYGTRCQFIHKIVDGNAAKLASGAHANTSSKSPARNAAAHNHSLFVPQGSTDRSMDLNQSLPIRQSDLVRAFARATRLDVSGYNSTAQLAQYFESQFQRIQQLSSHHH

[26] = molecular target: Photoreceptor-specific nuclear receptor (Homo sapiens, UniProt Q9Y5X4); format: functional;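 note: potency for compounds that break the NR2E3 corepressor complex and count as activators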
[27] = molecular target: T9, Zinc finger protein mex-5 (Caenorhabditis elegans, UniProt Q9XUB2); experiment: MEX-5/TCR-2 RNA interaction inhibitors, dose response, biochemical, C. elegans, fluorescence polarization (AID 1960)
T9 sequence (Q9XUB2 whole entry): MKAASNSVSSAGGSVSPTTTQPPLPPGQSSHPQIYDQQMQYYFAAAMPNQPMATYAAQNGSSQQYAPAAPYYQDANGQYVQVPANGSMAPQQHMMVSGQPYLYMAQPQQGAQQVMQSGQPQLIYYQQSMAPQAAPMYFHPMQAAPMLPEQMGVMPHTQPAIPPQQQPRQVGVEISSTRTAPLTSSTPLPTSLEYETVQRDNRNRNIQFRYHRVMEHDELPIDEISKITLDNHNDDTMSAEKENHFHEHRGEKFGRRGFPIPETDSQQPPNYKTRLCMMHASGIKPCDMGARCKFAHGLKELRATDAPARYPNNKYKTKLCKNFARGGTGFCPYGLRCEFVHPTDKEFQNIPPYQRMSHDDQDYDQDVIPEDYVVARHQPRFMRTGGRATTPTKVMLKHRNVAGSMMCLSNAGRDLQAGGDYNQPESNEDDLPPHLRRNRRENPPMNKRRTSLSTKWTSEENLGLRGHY

[28] = molecular target: T7, Polyadenylate-binding protein 1; experiment: PABP1 MLLE–PAM2 binding inhibitor potency, dose response, biochemical, fluorescence polarization, FITC-PAM2 peptide (AID 602259); format: functional; details: read-out: IC50_Mean
[29] = molecular target: T7, Polyadenylate-binding protein 1; experiment: PABP1 MLLE–PAM2 interaction inhibitors, dose response, miRNA deadenylation inhibitor project, biochemical, fluorescence polarization, Cy5-PAM2 peptide, secondary (AID 602260); format: functional; details: read-out: IC50_Mean
[30] = molecular target: Peroxisome proliferator-activated receptor gamma/Nuclear receptor corepressor 2 (Homo sapiens, UniProt P37231+Q9Y618); format: functional
Cytochrome P450 2D6 = Cytochrome P450 2D6 (Homo sapiens, UniProt P10635); experiment: qHTS Assay for Inhibitors and Substrates of Cytochrome P450 2D6. [Related pubchem assays: 410 ]; format: ADME; details: read-out: Potency
Chain of Cytochrome P450 2D6 (P10635 whole entry): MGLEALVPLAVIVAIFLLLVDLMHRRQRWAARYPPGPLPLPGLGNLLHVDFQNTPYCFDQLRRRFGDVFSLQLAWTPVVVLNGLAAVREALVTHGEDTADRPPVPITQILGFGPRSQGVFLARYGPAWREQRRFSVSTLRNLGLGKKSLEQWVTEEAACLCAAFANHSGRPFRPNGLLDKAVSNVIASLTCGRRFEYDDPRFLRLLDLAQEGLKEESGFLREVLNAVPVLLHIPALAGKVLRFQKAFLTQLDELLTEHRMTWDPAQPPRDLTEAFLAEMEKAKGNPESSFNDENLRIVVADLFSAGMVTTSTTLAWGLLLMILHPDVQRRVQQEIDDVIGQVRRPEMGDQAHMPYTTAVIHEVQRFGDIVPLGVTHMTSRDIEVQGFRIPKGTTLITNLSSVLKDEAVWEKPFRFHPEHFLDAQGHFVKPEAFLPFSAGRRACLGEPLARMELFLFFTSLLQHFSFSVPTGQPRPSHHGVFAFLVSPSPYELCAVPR

T7 sequence (P11940 whole entry): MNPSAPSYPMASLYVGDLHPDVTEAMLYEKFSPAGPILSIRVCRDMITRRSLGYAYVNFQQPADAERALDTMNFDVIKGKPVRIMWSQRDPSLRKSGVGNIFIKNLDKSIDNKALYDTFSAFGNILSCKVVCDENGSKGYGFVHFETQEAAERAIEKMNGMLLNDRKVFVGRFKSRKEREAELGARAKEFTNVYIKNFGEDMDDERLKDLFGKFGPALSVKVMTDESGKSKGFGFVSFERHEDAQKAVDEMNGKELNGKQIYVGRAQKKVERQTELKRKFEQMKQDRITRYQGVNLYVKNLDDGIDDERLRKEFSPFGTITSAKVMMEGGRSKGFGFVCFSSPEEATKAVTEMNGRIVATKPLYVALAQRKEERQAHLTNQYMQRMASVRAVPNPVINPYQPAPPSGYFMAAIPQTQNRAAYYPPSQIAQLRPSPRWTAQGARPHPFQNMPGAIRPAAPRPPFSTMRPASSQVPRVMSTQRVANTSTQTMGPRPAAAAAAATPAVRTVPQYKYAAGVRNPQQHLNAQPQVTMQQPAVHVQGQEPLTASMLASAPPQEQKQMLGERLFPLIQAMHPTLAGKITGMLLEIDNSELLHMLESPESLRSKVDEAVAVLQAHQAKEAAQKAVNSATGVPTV
T5 sequence (Q9NZJ5 whole entry): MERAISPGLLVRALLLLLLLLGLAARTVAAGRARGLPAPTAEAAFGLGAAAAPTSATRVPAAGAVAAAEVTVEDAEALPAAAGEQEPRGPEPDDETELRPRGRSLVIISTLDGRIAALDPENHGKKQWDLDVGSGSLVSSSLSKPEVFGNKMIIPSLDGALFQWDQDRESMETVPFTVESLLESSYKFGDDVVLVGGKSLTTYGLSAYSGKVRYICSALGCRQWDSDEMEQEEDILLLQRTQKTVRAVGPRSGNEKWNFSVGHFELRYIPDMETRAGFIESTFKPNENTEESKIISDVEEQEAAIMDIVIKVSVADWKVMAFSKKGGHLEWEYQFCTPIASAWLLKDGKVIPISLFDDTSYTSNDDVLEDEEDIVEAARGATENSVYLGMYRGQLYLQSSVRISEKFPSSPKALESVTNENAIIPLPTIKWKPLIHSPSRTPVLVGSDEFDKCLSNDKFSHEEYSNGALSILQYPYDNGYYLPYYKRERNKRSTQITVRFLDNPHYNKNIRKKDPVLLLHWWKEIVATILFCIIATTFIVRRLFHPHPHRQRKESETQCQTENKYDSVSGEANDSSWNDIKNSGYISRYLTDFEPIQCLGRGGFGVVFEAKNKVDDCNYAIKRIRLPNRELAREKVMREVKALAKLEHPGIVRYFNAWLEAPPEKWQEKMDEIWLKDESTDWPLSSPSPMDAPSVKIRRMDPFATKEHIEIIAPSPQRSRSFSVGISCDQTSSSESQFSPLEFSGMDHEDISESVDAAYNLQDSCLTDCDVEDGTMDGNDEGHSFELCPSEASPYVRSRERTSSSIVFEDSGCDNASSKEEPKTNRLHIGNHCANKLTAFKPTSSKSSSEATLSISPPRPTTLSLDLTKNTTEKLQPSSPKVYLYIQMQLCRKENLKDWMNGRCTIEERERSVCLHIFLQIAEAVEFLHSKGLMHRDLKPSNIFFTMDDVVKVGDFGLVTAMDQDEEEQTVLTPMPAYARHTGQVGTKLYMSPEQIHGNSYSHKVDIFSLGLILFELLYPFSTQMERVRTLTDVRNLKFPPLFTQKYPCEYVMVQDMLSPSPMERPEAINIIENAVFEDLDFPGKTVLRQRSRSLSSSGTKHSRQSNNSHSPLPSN
Chain of Transitional endoplasmic reticulum ATPase (Homo sapiens, UniProt P55072, C522A) (P55072 2-806 C522A limits assumed): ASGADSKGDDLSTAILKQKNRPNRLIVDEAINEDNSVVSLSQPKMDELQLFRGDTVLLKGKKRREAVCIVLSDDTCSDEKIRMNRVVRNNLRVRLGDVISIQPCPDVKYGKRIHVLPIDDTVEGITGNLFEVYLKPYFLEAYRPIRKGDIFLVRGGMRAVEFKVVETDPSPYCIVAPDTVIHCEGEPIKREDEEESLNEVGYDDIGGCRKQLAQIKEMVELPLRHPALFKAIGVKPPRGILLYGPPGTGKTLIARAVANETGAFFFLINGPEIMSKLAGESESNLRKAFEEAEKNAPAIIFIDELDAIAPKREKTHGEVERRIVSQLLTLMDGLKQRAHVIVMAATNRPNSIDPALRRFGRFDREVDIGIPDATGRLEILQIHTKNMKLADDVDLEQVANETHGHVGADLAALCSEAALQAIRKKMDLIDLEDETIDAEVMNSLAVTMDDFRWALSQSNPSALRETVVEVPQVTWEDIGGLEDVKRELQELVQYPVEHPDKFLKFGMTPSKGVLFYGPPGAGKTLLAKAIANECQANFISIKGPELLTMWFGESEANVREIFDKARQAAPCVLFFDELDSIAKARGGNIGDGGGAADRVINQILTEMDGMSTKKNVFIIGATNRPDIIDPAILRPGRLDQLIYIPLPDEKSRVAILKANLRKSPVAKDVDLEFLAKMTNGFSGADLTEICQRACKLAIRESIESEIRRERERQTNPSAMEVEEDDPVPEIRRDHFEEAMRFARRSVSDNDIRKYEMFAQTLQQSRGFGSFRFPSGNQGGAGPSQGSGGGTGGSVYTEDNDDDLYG
Chain of Glutathione-S-transferase (Q26513 whole entry): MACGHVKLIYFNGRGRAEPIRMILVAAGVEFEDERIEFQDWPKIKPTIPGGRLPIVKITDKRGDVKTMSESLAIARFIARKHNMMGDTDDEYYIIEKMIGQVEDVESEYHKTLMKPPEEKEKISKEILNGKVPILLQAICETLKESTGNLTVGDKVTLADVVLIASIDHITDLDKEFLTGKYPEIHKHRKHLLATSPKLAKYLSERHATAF
Chain of Transitional endoplasmic reticulum ATPase (Homo sapiens, UniProt P55072) (P55072 whole entry): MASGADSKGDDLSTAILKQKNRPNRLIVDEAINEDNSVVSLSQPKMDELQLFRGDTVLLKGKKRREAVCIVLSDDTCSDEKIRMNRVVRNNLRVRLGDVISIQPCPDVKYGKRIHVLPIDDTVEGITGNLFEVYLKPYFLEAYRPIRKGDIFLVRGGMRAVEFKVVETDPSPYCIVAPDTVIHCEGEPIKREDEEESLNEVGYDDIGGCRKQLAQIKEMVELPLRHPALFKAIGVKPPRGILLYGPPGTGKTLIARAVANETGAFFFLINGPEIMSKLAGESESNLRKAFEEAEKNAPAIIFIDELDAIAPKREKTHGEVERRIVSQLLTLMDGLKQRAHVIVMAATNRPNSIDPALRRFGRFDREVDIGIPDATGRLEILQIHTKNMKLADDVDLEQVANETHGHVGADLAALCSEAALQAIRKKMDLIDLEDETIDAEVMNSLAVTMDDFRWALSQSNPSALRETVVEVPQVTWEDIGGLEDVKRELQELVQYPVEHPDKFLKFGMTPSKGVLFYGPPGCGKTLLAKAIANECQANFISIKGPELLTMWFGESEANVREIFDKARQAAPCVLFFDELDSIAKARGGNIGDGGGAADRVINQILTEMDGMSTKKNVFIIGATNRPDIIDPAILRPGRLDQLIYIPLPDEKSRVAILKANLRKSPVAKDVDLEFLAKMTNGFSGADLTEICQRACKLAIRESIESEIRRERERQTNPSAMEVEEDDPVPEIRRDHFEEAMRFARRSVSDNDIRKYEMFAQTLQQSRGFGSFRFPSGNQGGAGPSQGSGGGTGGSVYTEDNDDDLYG
Chain of Photoreceptor-specific nuclear receptor (Q9Y5X4 whole entry): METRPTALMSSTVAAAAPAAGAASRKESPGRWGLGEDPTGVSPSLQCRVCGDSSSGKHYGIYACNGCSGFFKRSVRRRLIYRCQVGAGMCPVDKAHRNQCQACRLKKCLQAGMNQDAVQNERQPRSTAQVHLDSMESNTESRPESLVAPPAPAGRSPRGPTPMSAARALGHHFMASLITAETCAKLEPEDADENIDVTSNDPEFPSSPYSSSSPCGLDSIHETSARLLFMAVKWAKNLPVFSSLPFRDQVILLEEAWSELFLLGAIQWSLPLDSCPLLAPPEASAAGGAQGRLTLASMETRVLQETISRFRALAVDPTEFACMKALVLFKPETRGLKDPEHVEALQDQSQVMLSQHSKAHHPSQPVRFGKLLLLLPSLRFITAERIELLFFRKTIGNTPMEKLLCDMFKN
Chain of Likely tRNA 2'-phosphotransferase (Q5A7N4 whole entry): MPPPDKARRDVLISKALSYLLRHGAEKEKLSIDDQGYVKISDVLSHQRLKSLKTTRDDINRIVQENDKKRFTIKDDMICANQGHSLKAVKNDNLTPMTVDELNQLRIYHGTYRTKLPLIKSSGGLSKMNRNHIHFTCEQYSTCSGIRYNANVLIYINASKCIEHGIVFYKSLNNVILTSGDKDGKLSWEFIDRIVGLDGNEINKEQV

CCN1CCN(c2cc(N3CCN(C(=O)c4ccco4)CC3)c3c4c(onc24)-c2ccccc2C3=O)CC1
CC50 [1]: > 40 µM (active) | IC50 [2]: 10.7 µM (not active) | IC50 [3]: 7.8 µM (active) | IC50 [4]: > 100 µM (active)

COc1cc(/C=C2/CC/C(=C/c3ccc(O)c(OC)c3)C2=O)ccc1O
EC50 [5]: 15.8 µM (active) | EC50 [6]: 173 µM (active) | EC50 [7]: 6.57 µM (active) | EC50 (Streptokinase A): > 150 µM (not active) | EC50 (Streptococcus): 76.7 µM (active) | EC50 [8]: 27.1 µM (active)

N=C(N)N/N=C/c1ccc(OCc2ccc(Cl)cc2Cl)cc1
IC50 [9]: > 50 µM (not active) | EC50 [10]: 21 µM (inconclusive) | IC50 [11]: 5.97 µM (active) | EC50 [12]: > 120 µM (not active) | IC50 [13]: 7.31 µM (not active) | EC50 [14]: > 120 µM (not active) | IC50 [15]: > 50 µM (not active) | IC50 [16]: 7.26 µM (active) | EC50 [17]: 4.19 µM (active) | IC50 (Bcl-2-related protein A1): 13 µM (active) | EC50 [18]: > 120 µM (not active) | EC50 [19]: 4.16 µM (active)

CC(=O)N1CCc2cc(Br)cc(S(=O)(=O)NCCN3CCCCC3C)c21 (stereo not given)
EC50 [20]: > 50 µM (not active)

CCOC(=O)c1sc(NC(=O)C2C3C=CC(C3)C2C(=O)O)nc1C (stereo not given)
EC50 [21]: > 55.7 µM (not active) | AC50 (Caspase-6): 11.1 µM (active) | EC50 [22]: > 55.7 µM (not active)

COc1cc(C)cc(C(=O)O)c1C1=C(O)C(=O)c2c(O)cccc2C1=O
IC50 [23]: 5.41 µM (active) | IC50 [24]: 5.43 µM (active)

COC(=O)c1cc2n3ccccc3c(C)c(-c3ccccc3)c-2c1C(=O)OC
EC50 [25]: 23.6 µM (active) | IC50 [26]: 0.186 µM (active) | EC50 [27]: 16.6 µM (active) | IC50 [28]: 54.7 µM (inactive) | IC50 [29]: > 66 µM (inactive) | IC50 [30]: 0.196 µM (active)

COc1ccccc1CNc1cc(-c2ccccc2C(F)(F)F)ncn1
AC50 (Cytochrome P450 2D6): 39.8 µM (inconclusive)
